Converted amounts (≈) assume the structure as drawn. Positions of bridges follow the written chain, without caps; N, C: chain ends. Non-standard residues stand in square brackets, D forms with d. Residues, ends and D or L forms follow the SMILES beside them. Groups on a side chain read outwards from the residue. Chains are numbered I, II in the order given. Dab = NCC[C@H](N)C(=O)O

We go through six compounds from patent publication US10336792B2, “Antimicrobial peptide dendrimers” (priority 2014, dated 2019).

Common to all, as to assay type: cell-based
Assay [1] concerns Pseudomonas aeruginosa (strain PA01). The assay is described as follows: microbe, parasite or virus in culture. Particulars: strain. The procedure, abridged:
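Broth microdilution MIC against P. aeruginosa PAO1 in LB: peptides serially diluted by ⅔, bacteria added at OD600 0.001 and incubated 18–24 h at 37 °C. MTT added; MIC is the lowest concentration preventing visible growth.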

For assay [2], the system named is Bacillus subtilis (strain BR151). Conditions: strain BR151. The procedure, abridged:
(§1)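 Broth microdilution MIC in LB; overnight cultures diluted to OD600 0.001 and mixed 1:1 with ⅔-serially diluted samples (stock 1 mg mL^−1 in H2O), 37° C for 18-24 h. MTT (0.1%) added; MIC read by eye as lowest concentration inhibiting visible growth (yellow).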

The subject of assay [3] is Escherichia coli (strain DH5α). Conditions: DH5α. The procedure, abridged:
as §1

Consider `NCCCC[C@H](NC(=O)[C@H](CCCCNC(=O)[C@H](Cc1c[nH]c2ccccc12)NC(=O)[C@H](CCCCN)NC(=O)[C@H](CCCCNC(=O)[C@H](Cc1c[nH]c2ccccc12)NC(=O)[C@H](CCCCN)NC(=O)[C@H](CCCCNC(=O)[C@H](Cc1c[nH]c2ccccc12)NC(=O)[C@@H](N)CCCCN)NC(=O)[C@H](Cc1c[nH]c2ccccc12)NC(=O)[C@@H](N)CCCCN)NC(=O)[C@H](Cc1c[nH]c2ccccc12)NC(=O)[C@H](CCCCN)NC(=O)[C@H](CCCCNC(=O)[C@H](Cc1c[nH]c2ccccc12)NC(=O)[C@@H](N)CCCCN)NC(=O)[C@H](Cc1c[nH]c2ccccc12)NC(=O)[C@@H](N)CCCCN)NC(=O)[C@H](Cc1c[nH]c2ccccc12)NC(=O)[C@H](CCCCN)NC(=O)[C@H](CCCCNC(=O)[C@H](Cc1c[nH]c2ccccc12)NC(=O)[C@H](CCCCN)NC(=O)[C@H](CCCCNC(=O)[C@H](Cc1c[nH]c2ccccc12)NC(=O)[C@@H](N)CCCCN)NC(=O)[C@H](Cc1c[nH]c2ccccc12)NC(=O)[C@@H](N)CCCCN)NC(=O)[C@H](Cc1c[nH]c2ccccc12)NC(=O)[C@H](CCCCN)NC(=O)[C@H](CCCCNC(=O)[C@H](Cc1c[nH]c2ccccc12)NC(=O)[C@@H](N)CCCCN)NC(=O)[C@H](Cc1c[nH]c2ccccc12)NC(=O)[C@@H](N)CCCCN)C(=O)N[C@@H](Cc1c[nH]c2ccccc12)C(N)=O` [MSt-172, (KW)8(KKW)4(KKW)2(KKW)] (I: H-KWK([Trp-Lys])KWKKWKKW-NH2 / II: H-KWK([Trp-Lys])KWKKW / III: H-KWK([Trp-Lys])KW / IV: H-KWK([Trp-Lys])KW; amide I:6-IV:C, I:9-II:C, II:6-III:C; N-terminus assumed), for which, in assay [1], the “MIC P. aeruginosa PAO1” value was found to be 12 µg/mL (≈ 2.13 µM). The “MIC B. subtilis BR151” value in assay [2] worked out at 6 µg/mL (≈ 1.07 µM). Also, in assay [3], the “MIC E. coli DH5α” value stood at 7 µg/mL (≈ 1.24 µM).
The like results for `NCCCC[C@H](NC(=O)[C@H](CCCCNC(=O)[C@H](Cc1ccccc1)NC(=O)[C@H](CCCCN)NC(=O)[C@H](CCCCNC(=O)[C@H](Cc1ccccc1)NC(=O)[C@H](CCCCN)NC(=O)[C@H](CCCCNC(=O)[C@H](Cc1ccccc1)NC(=O)[C@@H](N)CCCCN)NC(=O)[C@H](Cc1ccccc1)NC(=O)[C@@H](N)CCCCN)NC(=O)[C@H](Cc1ccccc1)NC(=O)[C@H](CCCCN)NC(=O)[C@H](CCCCNC(=O)[C@H](Cc1ccccc1)NC(=O)[C@@H](N)CCCCN)NC(=O)[C@H](Cc1ccccc1)NC(=O)[C@@H](N)CCCCN)NC(=O)[C@H](Cc1ccccc1)NC(=O)[C@H](CCCCN)NC(=O)[C@H](CCCCNC(=O)[C@H](Cc1ccccc1)NC(=O)[C@H](CCCCN)NC(=O)[C@H](CCCCNC(=O)[C@H](Cc1ccccc1)NC(=O)[C@@H](N)CCCCN)NC(=O)[C@H](Cc1ccccc1)NC(=O)[C@@H](N)CCCCN)NC(=O)[C@H](Cc1ccccc1)NC(=O)[C@H](CCCCN)NC(=O)[C@H](CCCCNC(=O)[C@H](Cc1ccccc1)NC(=O)[C@@H](N)CCCCN)NC(=O)[C@H](Cc1ccccc1)NC(=O)[C@@H](N)CCCCN)C(=O)N[C@@H](Cc1ccccc1)C(N)=O` [MSt-174, (KF)8(KKF)4(KKF)2(KKF)] (I: H-KFK([Phe-Lys])KFKKFKKF-NH2 / II: H-KFK([Phe-Lys])KFKKF / III: H-KFK([Phe-Lys])KF / IV: H-KFK([Phe-Lys])KF; amide I:6-IV:C, I:9-II:C, II:6-III:C) were, in that order, 6 µg/mL (≈ 1.19 µM), 2 µg/mL (≈ 0.396 µM) and 7 µg/mL (≈ 1.39 µM).
Take `CC(C)C[C@H](NC(=O)[C@H](CC(C)C)NC(=O)[C@H](CCCCNC(=O)[C@H](CCCCN)NC(=O)[C@H](CCCCN)NC(=O)[C@H](CCCCNC(=O)[C@H](CC(C)C)NC(=O)[C@@H](N)CC(C)C)NC(=O)[C@H](CC(C)C)NC(=O)[C@@H](N)CC(C)C)NC(=O)[C@H](CCCCN)NC(=O)[C@H](CCCCN)NC(=O)[C@H](CCCCNC(=O)[C@H](CC(C)C)NC(=O)[C@@H](N)CC(C)C)NC(=O)[C@H](CC(C)C)NC(=O)[C@@H](N)CC(C)C)C(=O)NCCCC[C@H](NC(=O)[C@H](CC(C)C)NC(=O)[C@H](CC(C)C)NC(=O)[C@H](CCCCNC(=O)[C@H](CCCCN)NC(=O)[C@H](CCCCN)NC(=O)[C@H](CCCCNC(=O)[C@H](CC(C)C)NC(=O)[C@@H](N)CC(C)C)NC(=O)[C@H](CC(C)C)NC(=O)[C@@H](N)CC(C)C)NC(=O)[C@H](CCCCN)NC(=O)[C@H](CCCCN)NC(=O)[C@H](CCCCNC(=O)[C@H](CC(C)C)NC(=O)[C@@H](N)CC(C)C)NC(=O)[C@H](CC(C)C)NC(=O)[C@@H](N)CC(C)C)C(=O)N[C@@H](CCCCN)C(=O)N[C@@H](CCCCN)C(N)=O` [MSt-180, (LL)8(KKK)4(KLL)2(KKK)] (I: H-LLK([Leu-Leu])KKKLLKKK-NH2 / II: H-LLK([Leu-Leu])KKKLL / III: H-LLK([Leu-Leu])KK / IV: H-LLK([Leu-Leu])KK; amide I:6-IV:C, I:9-II:C, II:6-III:C): the “MIC P. aeruginosa PAO1” value in assay [1] came to 12 µg/mL (≈ 2.69 µM). Further, in assay [2], the “MIC B. subtilis BR151” value was 3 µg/mL (≈ 0.673 µM). The “MIC E. coli DH5α” value in assay [3] is over 62 µg/mL.
Taken in the same sequence, the figures for `CC(C)C[C@H](NC(=O)[C@H](CCN)NC(=O)[C@H](CCCCNC(=O)[C@H](CC(C)C)NC(=O)[C@H](CCN)NC(=O)[C@H](CCCCNC(=O)[C@H](CC(C)C)NC(=O)[C@H](CCN)NC(=O)[C@H](CCCCNC(=O)[C@H](CC(C)C)NC(=O)[C@@H](N)CCN)NC(=O)[C@H](CC(C)C)NC(=O)[C@@H](N)CCN)NC(=O)[C@H](CC(C)C)NC(=O)[C@H](CCN)NC(=O)[C@H](CCCCNC(=O)[C@H](CC(C)C)NC(=O)[C@@H](N)CCN)NC(=O)[C@H](CC(C)C)NC(=O)[C@@H](N)CCN)NC(=O)[C@H](CC(C)C)NC(=O)[C@H](CCN)NC(=O)[C@H](CCCCNC(=O)[C@H](CC(C)C)NC(=O)[C@H](CCN)NC(=O)[C@H](CCCCNC(=O)[C@H](CC(C)C)NC(=O)[C@@H](N)CCN)NC(=O)[C@H](CC(C)C)NC(=O)[C@@H](N)CCN)NC(=O)[C@H](CC(C)C)NC(=O)[C@H](CCN)NC(=O)[C@H](CCCCNC(=O)[C@H](CC(C)C)NC(=O)[C@@H](N)CCN)NC(=O)[C@H](CC(C)C)NC(=O)[C@@H](N)CCN)C(N)=O` [MSt-200, (DabL)8(KDabL)4(KDabL)2(KDabL)] (I: H-[Dab]LK([Leu-Dab])[Dab]LK[Dab]LK[Dab]L-NH2 / II: H-[Dab]LK([Leu-Dab])[Dab]LK[Dab]L / III: H-[Dab]LK([Leu-Dab])[Dab]L / IV: H-[Dab]LK([Leu-Dab])[Dab]L; amide I:6-IV:C, I:9-II:C, II:6-III:C; N-terminus assumed) were 3 µg/mL (≈ 0.729 µM), 2 µg/mL (≈ 0.486 µM) and 2 µg/mL (≈ 0.486 µM).
Taken in the same sequence, the figures for `CC(C)C[C@H](NC(=O)[C@H](CCN)NC(=O)[C@H](CCCCNC(=O)[C@H](Cc1c[nH]c2ccccc12)NC(=O)[C@H](CCN)NC(=O)[C@H](CCCCNC(=O)[C@H](CC(C)C)NC(=O)[C@@H](N)CCN)NC(=O)[C@H](CC(C)C)NC(=O)[C@@H](N)CCN)NC(=O)[C@H](Cc1c[nH]c2ccccc12)NC(=O)[C@H](CCN)NC(=O)[C@H](CCCCNC(=O)[C@H](CC(C)C)NC(=O)[C@@H](N)CCN)NC(=O)[C@H](CC(C)C)NC(=O)[C@@H](N)CCN)C(=O)NCCCC[C@H](NC(=O)[C@H](CC(C)C)NC(=O)[C@H](CCN)NC(=O)[C@H](CCCCNC(=O)[C@H](Cc1c[nH]c2ccccc12)NC(=O)[C@H](CCN)NC(=O)[C@H](CCCCNC(=O)[C@H](CC(C)C)NC(=O)[C@@H](N)CCN)NC(=O)[C@H](CC(C)C)NC(=O)[C@@H](N)CCN)NC(=O)[C@H](Cc1c[nH]c2ccccc12)NC(=O)[C@H](CCN)NC(=O)[C@H](CCCCNC(=O)[C@H](CC(C)C)NC(=O)[C@@H](N)CCN)NC(=O)[C@H](CC(C)C)NC(=O)[C@@H](N)CCN)C(=O)N[C@@H](CCN)C(=O)N[C@@H](Cc1c[nH]c2ccccc12)C(N)=O` [MSt-202, (DabL)8(KDabW)4(KDabL)2(KDabW)] (I: H-[Dab]LK([Leu-Dab])[Dab]WK[Dab]LK[Dab]W-NH2 / II: H-[Dab]LK([Leu-Dab])[Dab]WK[Dab]L / III: H-[Dab]LK([Leu-Dab])[Dab]W / IV: H-[Dab]LK([Leu-Dab])[Dab]W; amide I:6-IV:C, I:9-II:C, II:6-III:C; N-terminus assumed) were 2 µg/mL (≈ 0.447 µM), 1 µg/mL (≈ 0.223 µM) and 1 µg/mL (≈ 0.223 µM).
The like results for `CC(C)C[C@H](NC(=O)[C@H](CCN)NC(=O)[C@H](CCCCNC(=O)[C@H](CC(C)C)NC(=O)[C@@H](N)CCN)NC(=O)[C@H](CC(C)C)NC(=O)[C@@H](N)CCN)C(=O)NCCCC[C@H](NC(=O)[C@H](CC(C)C)NC(=O)[C@H](CCN)NC(=O)[C@H](CCCCNC(=O)[C@H](CC(C)C)NC(=O)[C@@H](N)CCN)NC(=O)[C@H](CC(C)C)NC(=O)[C@@H](N)CCN)C(=O)N[C@@H](CCN)C(=O)N[C@@H](Cc1c[nH]c2ccccc12)C(=O)NCCCC[C@H](NC(=O)[C@H](Cc1c[nH]c2ccccc12)NC(=O)[C@H](CCN)NC(=O)[C@H](CCCCNC(=O)[C@H](CC(C)C)NC(=O)[C@H](CCN)NC(=O)[C@H](CCCCNC(=O)[C@H](CC(C)C)NC(=O)[C@@H](N)CCN)NC(=O)[C@H](CC(C)C)NC(=O)[C@@H](N)CCN)NC(=O)[C@H](CC(C)C)NC(=O)[C@H](CCN)NC(=O)[C@H](CCCCNC(=O)[C@H](CC(C)C)NC(=O)[C@@H](N)CCN)NC(=O)[C@H](CC(C)C)NC(=O)[C@@H](N)CCN)C(=O)N[C@@H](CCN)C(=O)N[C@@H](Cc1c[nH]c2ccccc12)C(N)=O` [MSt-203, (DabL)8(KDabL)4(KDabW)2(KDabW)] (I: H-[Dab]LK([Leu-Dab])[Dab]LK[Dab]WK[Dab]W-NH2 / II: H-[Dab]LK([Leu-Dab])[Dab]LK[Dab]W / III: H-[Dab]LK([Leu-Dab])[Dab]L / IV: H-[Dab]LK([Leu-Dab])[Dab]L; amide I:6-IV:C, I:9-II:C, II:6-III:C; N-terminus assumed) were, in that order, 2 µg/mL (≈ 0.462 µM), 2 µg/mL (≈ 0.462 µM) and 2 µg/mL (≈ 0.462 µM).
